In patent US8785452B2, “Anti-infective compounds” (priority 2008, dated 2014):
Where two headings read alike, the source gives them in different places.

How the values were obtained:
Raw264.7 cells [1] = test: Cell number (CellNb) from image analysis of the phenotypic cell-based assay
[2] = system: M. tuberculosis H37Rv-GFP; test: microbe, parasite or virus in culture; type: cell-based, Mycobacterium tuberculosis; conditions: Mycobacterium tuberculosis, H37RV, Macrophage; for inhibition at 0.2 µM: read-out: QIM Confirm % Inhibition 0.2 uM; for inhibition at 2 µM: read-out: QIM Confirm % Inhibition 2 uM
Raw264.7 cells [3] = conditions: mouse, 5 days; for Primary QIM CellNb: 20 μM
[4] = system: M. tuberculosis H37Rv-GFP; test: microbe, parasite or virus in culture; type: cell-based; conditions: Mycobacterium tuberculosis; for inhibition at 0.2 µM: read-out: QUM Confirm % Inhibition 0.2 uM; for inhibition at 2 µM: read-out: QUM Confirm % Inhibition 2 uM; for inhibition at 20 µM: read-out: QUM Confirm % Inhibition 20 uM
[5] = confirmation, 20 uM, read-out: QIM Confirm % Inhibition 20 uM
[6] = primary screen, 20 μM, read-out: Primary QIM % Inhibition
[7] = confirmation, 20 uM, intracellular, read-out: QIM Confirm % Inhibition 20 uM
[8] = primary screen, 20 μM, intracellular, read-out: Primary QIM % Inhibition
[9] = confirmation, 0.2 uM, intracellular
[10] = confirmation, 2 uM, intracellular

SMILES | Primary QIM CellNb (Raw264.7 cells [1]; primary screen, 20 μM) | inhibition at 20 µM [2, 5] | inhibition at 20 µM [2, 6] | Primary QIM CellNb (Raw264.7 cells [3]) | further results
O=C(N/N=C/c1ccc([N+](=O)[O-])s1)C1CCN(Cc2ccc(Br)cc2)CC1 [IPK 000 091 49] | 110.5 | 95.1% | 90.5% | 9.3 | 
O=C(N/N=C/c1cc2ccccc2[nH]1)c1ccncc1 [IPK 000 043 12] | 195.0 | 100% | 69.9% | 104.6 | 
C/C(=N\NC(=O)c1cccc(F)c1)c1ccc2ccccc2c1 [IPK 000 104 07] | 243.5 | 80.2% | 82.3% | 65.1 | 
N=C1S/C(=C/c2ccc([N+](=O)[O-])cc2)C(=O)N1c1nccs1 [IPK 000 094 38] | 126.3 | 6% | 46% | 13.6 | 
CCCOC(=O)C1=C(C)NC2=C(C(=O)CC(c3ccccc3)C2)C1c1cccc(O)c1 (centres unmarked) [IPK 000 085 99] | 67.3 | 49.5% | 37.1% | 4.5 | 
C=C(N/N=C/c1cccc(C)n1)c1nn(Cc2ccc(Br)cc2)cc1Br [IPK 000 091 17] | 191.5 | 75.7% | 75.6% | 35.4 | 
Cc1ccc(NC(=O)c2ccc([N+](=O)[O-])cc2Cl)cc1Cl [IPK 000 047 16] | 280.5 | 85.1% | 69.4% | 77.9 | 
CCN(CC)c1ccc(/C=N/NC(=O)c2cccs2)c(O)c1 [IPK 000 103 76] | 47.8 | 74.5% | 85.7% | −1.7 | 
O=C(N/N=C/c1ccc(Br)cc1)c1ccncc1 [IPK 000 041 51] | 351.3 | 94% | 89% | 102.9 | 
CC(/C=N/NC(=O)c1ccncc1)c1ccccc1 (centres unmarked) [IPK 000 105 20] | 316.5 | 96.4% | 97.1% | 103.8 | 
Cc1ccccc1/C=N/NC(=O)c1ccncc1 [IPK 000 043 29] | 415.5 | 100% | 111% | 105.2 | 
O=[N+]([O-])c1ccc(O)c(C2NN=C(c3ccccc3)S2)c1 (centres unmarked) [IPK 000 114 01] | 163.5 | -1.5% | 3.2% | 7.3 | 
Cc1ccccc1NC(=O)c1c(NC(=O)c2ccccc2Cl)sc2c1CCC2 [IPK 000 073 71] | 218.3 | 65.2% | 87.5% | 29.8 | QIM Confirm CellNb 0.2 uM (Raw264.7 cells [3]): 45.3
C/C(=N\NC(N)=S)c1ccccc1O [IPK 000 080 38] | 307.5 | 3.4% | 21% | 32.1 | 
Cc1sc(/N=C/c2ccc([N+](=O)[O-])s2)c(C(N)=O)c1C [IPK 000 110 17] | 155.5 | 71.6% | 55.6% | 12.9 | 
COc1ccccc1/C=N/NC(=O)c1ccncc1 [IPK 000 043 01] | 287.8 | 103% | 86.6% | 103.6 | 
O=C(Nc1cc(Cl)cc(Cl)c1)c1cc([N+](=O)[O-])ccc1Cl [IPK 000 049 20] | 155.5 | 88.6% | 71.5% | 54.8 | 
Cc1ccc(NC(=O)c2c(NC(=O)C(F)(F)F)sc3c2CCC3)c(C)c1 [IPK 000 077 22] | 84.5 | 46.6% | -33% | 33.3 | 

SMILES | Primary QIM CellNb (Raw264.7 cells [1]; primary screen, 20 μM) | inhibition at 20 µM [2, 5] | inhibition at 20 µM [2, 6] | Primary QIM CellNb (Raw264.7 cells [3]) | further results
O=C(N/N=C/c1ccc(Cl)cc1Cl)c1ccncc1 [IPK 000 043 13] | 177.8 | 104% | 49.2% | 101.6 | 
NNC(=O)c1ccc(COc2ccc(F)cc2)o1 [IPK 000 124 65] | 490.8 | 94.3% | 77.1% | 45.0 | QIM Confirm CellNb 0.2 uM (Raw264.7 cells [1]; confirmation, 0.2 uM): 267.0
Oc1ccccc1/N=C/c1cc(Cl)cc(Cl)c1O [IPK 000 045 01] | 145.0 | 30.6% | -9.3% | 24.3 | 
CCc1ccc(/C=N/NC(=O)c2ccncc2)cc1 [IPK 000 043 31] | 334.0 | 100% | 94.6% | 101.5 | 
Cc1ccc(NC(=O)c2ccc([N+](=O)[O-])cc2Cl)cc1C [IPK 000 047 15] | 281.8 | 85.8% | 69.7% | 61.1 | 
CCOC(=O)/C=C/C(=O)NNC(=O)c1cccs1 [IPK 000 109 99] | 183.0 | 28.1% | 8.5% | 20.3 | QIM Confirm CellNb 2 uM (Raw264.7 cells [1]; confirmation, 2 uM): 174.3; QIM Confirm CellNb 2 uM (Raw264.7 cells [3]; 2 uM): 101.3
O=C(NC1CCCCC1)c1ccc(COc2cc(Cl)ccc2Cl)o1 [IPK 000 123 90] | 205.0 | 87.7% | 73.1% | 26.7 | 
O=C(Nc1ccccc1)Nc1ccc(Br)c(Cl)c1 [IPK 000 170 27] |  |  |  |  | inhibition at 20 µM [2, 7]: 18.9%; inhibition at 20 µM [2, 8]: -72.4%; QIM Confirm CellNb 20 uM (Raw264.7 cells [3]; 20 uM): 46.9
Cc1cc(C)cc(NC(=O)c2cccs2)c1 [IPK 000 192 45] |  |  |  |  | inhibition at 20 µM [2, 7]: 65.4%; inhibition at 20 µM [2, 8]: 88.8%; QIM Confirm CellNb 0.2 uM (Raw264.7 cells [3]): 334.0
CN(C)c1ccc(/C=C2/c3ccccc3-c3ccc(C(=O)CCCCN4CCCCC4)cc32)cc1 [IPK 000 198 53] |  |  |  | 10.2 | inhibition at 20 µM [2, 7]: 41.9%; inhibition at 20 µM [2, 8]: 58.5%
Clc1ccc(Nc2nc3nonc3nc2Nc2ccc(Cl)c(Cl)c2)cc1Cl [IPK 000 003 89] | 72.5 | 84.6% | 27.7% |  | QIM Confirm CellNb 0.2 uM (Raw264.7 cells [1]; confirmation, 0.2 uM): 265.3; QIM Confirm CellNb 2 uM (Raw264.7 cells [1]; confirmation, 2 uM): 200.6; QIM Confirm CellNb 20 uM (Raw264.7 cells [1]; confirmation, 20 uM): 103.0; inhibition at 0.2 µM [2, 9]: 20.1%; inhibition at 2 µM [2, 10]: 86.6%; inhibition at 0.2 µM [4]: 44%; inhibition at 2 µM [4]: 76.5%; inhibition at 20 µM [4]: 67%
C/C(=N/NC(=O)c1ccncc1)c1cccs1 [IPK 000 003 01] | 373.5 | 40.4% | 88.2% |  | QIM Confirm CellNb 0.2 uM (Raw264.7 cells [1]; confirmation, 0.2 uM): 232.6; QIM Confirm CellNb 2 uM (Raw264.7 cells [1]; confirmation, 2 uM): 457.3; QIM Confirm CellNb 20 uM (Raw264.7 cells [1]; confirmation, 20 uM): 248.3; inhibition at 0.2 µM [2, 9]: 4.7%; inhibition at 2 µM [2, 10]: 77.1%; inhibition at 0.2 µM [4]: 46.4%; inhibition at 2 µM [4]: 82.8%; inhibition at 20 µM [4]: 43%
O=C(NN=C1CCCC1)c1ccncc1 [IPK 000 013 70] | 309.3 | 103% | 88.3% |  | QIM Confirm CellNb 0.2 uM (Raw264.7 cells [1]; confirmation, 0.2 uM): 412.6; QIM Confirm CellNb 2 uM (Raw264.7 cells [1]; confirmation, 2 uM): 510.9; QIM Confirm CellNb 20 uM (Raw264.7 cells [1]; confirmation, 20 uM): 518.5; inhibition at 0.2 µM [2, 9]: 50.5%; inhibition at 2 µM [2, 10]: 98.1%; inhibition at 0.2 µM [4]: 46.3%; inhibition at 2 µM [4]: 79.4%; inhibition at 20 µM [4]: 67.6%
CSc1nsc(SCc2ccc(C(=O)Nc3ccc(C)cc3C)cc2)n1 [IPK 000 125 08] |  |  |  |  | inhibition at 20 µM [2, 7]: 65.1%; inhibition at 20 µM [2, 8]: 72.8%; QIM Confirm CellNb 0.2 uM (Raw264.7 cells [3]): 388.9
O=C(Nc1ccc(Oc2ccccc2)cc1)C1CCCO1 (centres unmarked) [IPK 000 033 16] | 283.0 | 92.3% | 81.9% |  | QIM Confirm CellNb 0.2 uM (Raw264.7 cells [1]; confirmation, 0.2 uM): 296.1; QIM Confirm CellNb 2 uM (Raw264.7 cells [1]; confirmation, 2 uM): 573.9; QIM Confirm CellNb 20 uM (Raw264.7 cells [1]; confirmation, 20 uM): 303.9; inhibition at 0.2 µM [2, 9]: 5%; inhibition at 2 µM [2, 10]: 69.6%; inhibition at 0.2 µM [4]: 34.1%; inhibition at 2 µM [4]: 42%; inhibition at 20 µM [4]: 61.3%
O=C(N/N=C/c1ccco1)c1ccncc1 [IPK 000 013 67] |  |  |  |  | Primary QIM CellNb (Raw264.7 cells [1]): 358.0; QIM Confirm CellNb 0.2 uM (Raw264.7 cells [1]): 452.5; QIM Confirm CellNb 2 uM (Raw264.7 cells [1]): 545.1; QIM Confirm CellNb 20 uM (Raw264.7 cells [1]): 457.3; inhibition at 20 µM ([2]; read-out: Primary QIM % Inhibition): 98.7%; inhibition at 0.2 µM [2]: 84.1%; inhibition at 2 µM [2]: 102%; inhibition at 20 µM ([2]; read-out: QIM Confirm % Inhibition 20 uM): 66.7%; inhibition at 0.2 µM [4]: 49.4%; inhibition at 2 µM [4]: 90.2%; inhibition at 20 µM [4]: 69.7%
CN1CCN(c2nc(Nc3ccc(OC(F)(F)F)cc3)nc(OCC(F)(F)F)n2)CC1 [IPK 000 008 12] | 396.3 | 78.4% | 64.1% |  | QIM Confirm CellNb 0.2 uM (Raw264.7 cells [1]; confirmation, 0.2 uM): 292.9; QIM Confirm CellNb 2 uM (Raw264.7 cells [1]; confirmation, 2 uM): 225.6; QIM Confirm CellNb 20 uM (Raw264.7 cells [1]; confirmation, 20 uM): 248.0; inhibition at 0.2 µM [2, 9]: 2.7%; inhibition at 2 µM [2, 10]: 18.9%; inhibition at 0.2 µM [4]: 36.5%; inhibition at 2 µM [4]: 39.7%; inhibition at 20 µM [4]: 48%
